Data as given in ChEMBL document CHEMBL4680302, “Biologic-like In Vivo Efficacy with Small Molecule Inhibitors of TNFα Identified Using Scaffold Hopping and Structure-Based Drug Design Approaches” (J Med Chem, 2020).

Columns and labels:
Cytochrome P450 2C19 = Cytochrome P450 2C19 (Homo sapiens, UniProt P33261); experiment: Inhibition of recombinant CYP2C19 (unknown origin); type: ADME
Tumor necrosis factor [1] = target: T1, Tumor necrosis factor (Homo sapiens, UniProt P01375); experiment: Displacement of fluorescent labeled probe from human recombinant His-tagged TNFalpha (77 to 233 residues) expressed in Escherichia coli preincubated for 1 hr followed by fluorogenic probe addition and measured after 3 hrs by HTRF assay
Tumor necrosis factor [2] = target: T1, Tumor necrosis factor; experiment: Inhibition of exogenous human TNFalpha in HEK-Blue-CD40L cells assessed as reduction in TNF-alpha-induced NFkappaB activation incubated for 18 hrs by quanti-blue based SEAP assay; type: cell-based
[3] = Metabolic stability in mouse liver microsomes assessed as parent compound remaining after 10 mins; type: ADME, Microsome; conditions: read-out: Stabilty
[4] = Metabolic stability in human liver microsomes assessed as parent compound remaining after 10 mins; type: ADME, Microsome; conditions: read-out: Stabilty
Cytochrome P450 2C9 = Cytochrome P450 2C9 (Homo sapiens, UniProt P11712); experiment: Inhibition of recombinant CYP2C9 (unknown origin); type: ADME
Cytochrome P450 2C9, sequence (P11712 whole entry): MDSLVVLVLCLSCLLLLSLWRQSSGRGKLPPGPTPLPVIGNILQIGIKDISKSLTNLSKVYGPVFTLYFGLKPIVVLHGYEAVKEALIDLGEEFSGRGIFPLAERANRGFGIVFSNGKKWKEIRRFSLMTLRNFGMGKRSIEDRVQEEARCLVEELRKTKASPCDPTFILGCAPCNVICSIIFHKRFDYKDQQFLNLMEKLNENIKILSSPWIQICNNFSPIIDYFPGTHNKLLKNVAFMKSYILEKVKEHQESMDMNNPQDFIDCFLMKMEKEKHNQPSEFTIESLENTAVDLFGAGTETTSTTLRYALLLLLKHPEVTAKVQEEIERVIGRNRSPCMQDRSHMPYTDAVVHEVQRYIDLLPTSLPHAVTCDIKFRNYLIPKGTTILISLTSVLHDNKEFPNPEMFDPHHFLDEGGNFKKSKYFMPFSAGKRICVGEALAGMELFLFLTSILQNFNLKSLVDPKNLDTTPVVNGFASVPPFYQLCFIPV

Cytochrome P450 2C19, sequence (P33261 whole entry, the tested form may be a part): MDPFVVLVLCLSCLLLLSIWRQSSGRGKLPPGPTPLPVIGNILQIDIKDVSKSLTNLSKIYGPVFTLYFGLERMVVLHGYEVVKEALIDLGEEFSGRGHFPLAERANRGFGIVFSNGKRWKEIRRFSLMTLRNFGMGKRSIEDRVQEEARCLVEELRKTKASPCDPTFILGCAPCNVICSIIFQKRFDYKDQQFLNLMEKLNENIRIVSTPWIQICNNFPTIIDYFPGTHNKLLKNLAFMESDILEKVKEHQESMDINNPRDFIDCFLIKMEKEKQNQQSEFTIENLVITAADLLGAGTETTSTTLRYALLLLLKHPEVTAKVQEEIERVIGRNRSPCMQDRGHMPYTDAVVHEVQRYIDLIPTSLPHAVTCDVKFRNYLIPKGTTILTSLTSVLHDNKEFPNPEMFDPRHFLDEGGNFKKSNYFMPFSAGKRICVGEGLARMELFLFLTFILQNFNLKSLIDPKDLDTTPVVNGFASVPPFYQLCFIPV
T1 sequence (P01375 whole entry, the tested form may be a part): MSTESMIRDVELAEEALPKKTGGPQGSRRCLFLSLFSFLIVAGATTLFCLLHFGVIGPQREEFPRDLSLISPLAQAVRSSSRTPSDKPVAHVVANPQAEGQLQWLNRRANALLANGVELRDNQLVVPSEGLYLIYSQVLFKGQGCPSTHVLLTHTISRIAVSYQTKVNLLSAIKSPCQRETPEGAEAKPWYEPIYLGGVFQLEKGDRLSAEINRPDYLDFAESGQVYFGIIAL

CC(Nc1c(Cl)cnc2ccc(-c3cnc(C(C)(C)O)nc3)nc12)c1ccccc1F (single isomer, unassigned; enantiomer 2)
IC50 (Cytochrome P450 2C19): 30 nM | IC50 (Tumor necrosis factor [1]): 38 nM | IC50 (Tumor necrosis factor [2]): 473 nM | remaining at 10 min [3]: 41% | remaining at 10 min [4]: 84%

C[C@H](Nc1c(Cl)cnc2ccc(-c3cnc(C(C)(C)O)nc3)cc12)c1ccccc1
IC50 (Tumor necrosis factor [1]): 943 nM | IC50 (Tumor necrosis factor [2]): > 25000 nM | remaining at 10 min [3]: 26% | remaining at 10 min [4]: 32%

C[C@@H](Nc1c(Cl)cnc2ccc(-c3cnc(C(C)(C)O)nc3)cc12)c1cc(N2CCCC2)ccc1F
IC50 (Tumor necrosis factor [1]): 94 nM | IC50 (Tumor necrosis factor [2]): 331 nM | remaining at 10 min [3]: 18% | remaining at 10 min [4]: 30%

CC(C)(O)c1ncc(-c2ccc3ncc(Cl)c(NCc4ccccc4)c3c2)cn1
IC50 (Tumor necrosis factor [1]): 82 nM | IC50 (Tumor necrosis factor [2]): > 25000 nM | remaining at 10 min [3]: 61% | remaining at 10 min [4]: 57%

CC(Nc1c(Cl)cnc2ccc(-c3cnc(C(C)(C)O)nc3)c(Cl)c12)c1ccccc1F (racemic)
IC50 (Tumor necrosis factor [1]): 116 nM | IC50 (Tumor necrosis factor [2]): 365 nM

Cc1ccc(C)c(Nc2ccnc3ccc(-c4ccc(C#N)nc4)cc23)c1
IC50 (Tumor necrosis factor [1]): 428 nM | IC50 (Tumor necrosis factor [2]): > 25000 nM

CCC(Nc1c(Cl)cnc2ccc(-c3cnc(C(C)(C)O)nc3)cc12)c1ccccc1F (racemic)
IC50 (Tumor necrosis factor [1]): 35 nM | IC50 (Tumor necrosis factor [2]): 368 nM | remaining at 10 min [3]: 38% | remaining at 10 min [4]: 57%

CC(Nc1c(Cl)cnc2ncc(-c3cnc(C(C)(C)O)nc3)cc12)c1ccccc1F (racemic)
IC50 (Tumor necrosis factor [1]): 207 nM

CC(Nc1c(Cl)cnc2ccc(-c3cnc(C(C)(C)O)nc3)nc12)c1ccccc1F (racemic)
IC50 (Tumor necrosis factor [1]): 24 nM

CCOc1ncc(-c2ccc3ncc(Cl)c(N[C@H](C)c4ccccc4F)c3c2)cn1
IC50 (Tumor necrosis factor [1]): 15 nM | IC50 (Tumor necrosis factor [2]): 587 nM | remaining at 10 min [3]: 28% | remaining at 10 min [4]: 32%

CC(Nc1c(Cl)cnc2ccc(-c3cnc(C(C)(C)O)nc3)cc12)c1ccc(F)cc1 (racemic)
IC50 (Tumor necrosis factor [1]): 62 nM | IC50 (Tumor necrosis factor [2]): 840 nM | remaining at 10 min [3]: 38% | remaining at 10 min [4]: 42%

CC(Nc1c(Cl)cnc2ccc(-c3cnc(C(C)(C)O)nc3)cc12)c1ccccn1 (racemic)
IC50 (Tumor necrosis factor [1]): 264 nM | IC50 (Tumor necrosis factor [2]): > 25000 nM | remaining at 10 min [3]: 21% | remaining at 10 min [4]: 50%

C[C@@H](Nc1c(Cl)cnc2ccc(-c3cnc(C(C)(C)O)nc3)cc12)c1cc(N)ccc1F
IC50 (Tumor necrosis factor [1]): 37 nM | IC50 (Tumor necrosis factor [2]): 41 nM | remaining at 10 min [3]: 45% | remaining at 10 min [4]: 70%

Cc1ccc(C)c(Nc2c(C)cnc3ccc(-c4cnc(C(C)(C)O)nc4)cc23)c1
IC50 (Tumor necrosis factor [2]): 107 nM

CC(Nc1c(Cl)cnc2cnc(-c3cnc(C(C)(C)O)nc3)cc12)c1ccccc1F (racemic)
IC50 (Tumor necrosis factor [1]): 400 nM

C[C@@H](Nc1c(Cl)cnc2ccc(-c3ccc(C(C)(C)O)cc3)cc12)c1ccccc1F
IC50 (Tumor necrosis factor [1]): 47 nM | IC50 (Tumor necrosis factor [2]): 65 nM | remaining at 10 min [3]: 24% | remaining at 10 min [4]: 73%

Cc1ccc(C)c(Nc2c(Cl)cnc3ccc(-c4ccc(C#N)nc4)cc23)c1
IC50 (Tumor necrosis factor [1]): 35 nM | IC50 (Tumor necrosis factor [2]): 73 nM | remaining at 10 min [3]: 30% | remaining at 10 min [4]: 33%

C[C@@H](Nc1c(Cl)cnc2ccc(-c3cnc(C(C)(C)O)nc3)cc12)c1ccccc1F
IC50 (Tumor necrosis factor [1]): 17 nM | IC50 (Tumor necrosis factor [2]): 110 nM | remaining at 10 min [3]: 54% | remaining at 10 min [4]: 59%

C[C@@H](Nc1c(Cl)cnc2ccc(-c3ccc(S(C)(=O)=O)nc3)cc12)c1ccccc1F
IC50 (Tumor necrosis factor [1]): 15 nM | IC50 (Tumor necrosis factor [2]): 909 nM | remaining at 10 min [3]: 31% | remaining at 10 min [4]: 33%

CC(Nc1c(Cl)cnc2ccc(-c3cnc(C(C)(C)O)nc3)cc12)c1ccccc1C(F)(F)F (racemic)
IC50 (Tumor necrosis factor [1]): 51 nM | IC50 (Tumor necrosis factor [2]): 407 nM | remaining at 10 min [3]: 49% | remaining at 10 min [4]: 81%

Cc1ccc(C)c(Nc2c(Cl)cnc3ccc(Br)cc23)c1
IC50 (Tumor necrosis factor [1]): 36 nM | IC50 (Tumor necrosis factor [2]): 840 nM

C[C@@H](Nc1c(Cl)cnc2ccc(-c3cnc(C(C)(C)O)nc3)cc12)c1cc(C#N)ccc1F
IC50 (Tumor necrosis factor [1]): 48 nM | IC50 (Tumor necrosis factor [2]): 49 nM | remaining at 10 min [3]: 23% | remaining at 10 min [4]: 79%

Cc1ccc(C)c(Nc2c(Cl)c(C)nc3ccc(-c4cnc(C(C)(C)O)nc4)cc23)c1
IC50 (Cytochrome P450 2C19): 2100 nM | IC50 (Tumor necrosis factor [1]): 51 nM | IC50 (Tumor necrosis factor [2]): 196 nM | IC50 (Cytochrome P450 2C9): 2800 nM

CC(Nc1c(Cl)cnc2c(F)cc(-c3cnc(C(C)(C)O)nc3)cc12)c1ccccc1F (racemic)
IC50 (Tumor necrosis factor [1]): 46 nM | IC50 (Tumor necrosis factor [2]): 224 nM | remaining at 10 min [3]: 25% | remaining at 10 min [4]: 67%

CC(Nc1c(Cl)cnc2ccc(-c3cnc(C(C)(C)O)nc3)nc12)c1ccccc1F (single isomer, unassigned; enantiomer 1)
IC50 (Tumor necrosis factor [1]): 39 nM | IC50 (Tumor necrosis factor [2]): 753 nM

Cc1ccc(C)c(Nc2c(Cl)cnc3ccc(-c4cnc(C(C)(C)O)nc4)cc23)c1
IC50 (Cytochrome P450 2C19): 30 nM | IC50 (Tumor necrosis factor [2]): 105 nM | remaining at 10 min [3]: 24% | remaining at 10 min [4]: 35% | IC50 (Cytochrome P450 2C9): 600 nM

CC(Nc1c(Cl)cnc2c(Cl)cc(-c3cnc(C(C)(C)O)nc3)cc12)c1ccccc1F (racemic)
IC50 (Tumor necrosis factor [1]): 106 nM | IC50 (Tumor necrosis factor [2]): > 25000 nM | remaining at 10 min [3]: 7% | remaining at 10 min [4]: 40%

CC(Nc1c(Cl)cnc2cc(Cl)c(-c3cnc(C(C)(C)O)nc3)cc12)c1ccccc1F (racemic)
IC50 (Tumor necrosis factor [1]): 54 nM | IC50 (Tumor necrosis factor [2]): 178 nM

CC(C)(O)c1ncc(-c2ccc3ncc(Cl)c(NC(C)(C)c4ccccc4)c3c2)cn1
IC50 (Tumor necrosis factor [1]): > 10000 nM | IC50 (Tumor necrosis factor [2]): > 25000 nM | remaining at 10 min [3]: 47% | remaining at 10 min [4]: 76%

CC(Nc1c(Cl)cnc2cc(F)c(-c3cnc(C(C)(C)O)nc3)cc12)c1ccccc1F (racemic)
IC50 (Tumor necrosis factor [1]): 48 nM | IC50 (Tumor necrosis factor [2]): 64 nM | remaining at 10 min [3]: 28% | remaining at 10 min [4]: 70%

C[C@@H](Nc1ccnc2ccc(-c3cnc(C(C)(C)O)nc3)cc12)c1cc(N2CCCC2)ccc1F
IC50 (Tumor necrosis factor [1]): 15100 nM | IC50 (Tumor necrosis factor [2]): > 25000 nM | remaining at 10 min [3]: 51% | remaining at 10 min [4]: 46%

CC(C)C(Nc1c(Cl)cnc2ccc(-c3cnc(C(C)(C)O)nc3)cc12)c1ccccc1F (racemic)
IC50 (Tumor necrosis factor [1]): 57 nM | IC50 (Tumor necrosis factor [2]): 826 nM | remaining at 10 min [3]: 13% | remaining at 10 min [4]: 69%

C[C@@H](Nc1c(Cl)cnc2ccc(-c3cnc(N4CCS(=O)(=O)CC4)nc3)cc12)c1ccccc1F
IC50 (Tumor necrosis factor [1]): 25 nM | IC50 (Tumor necrosis factor [2]): 152 nM | remaining at 10 min [3]: 34% | remaining at 10 min [4]: 57%

CC(Nc1c(Cl)cnc2ccc(-c3cnc(C(C)(C)O)nc3)cc12)c1ccccc1F (racemic)
IC50 (Tumor necrosis factor [1]): 27 nM | IC50 (Tumor necrosis factor [2]): 190 nM | remaining at 10 min [3]: 34% | remaining at 10 min [4]: 51%

C[C@@H](Nc1c(Cl)cnc2ccc(-c3cnc(C(C)(C)O)nc3)cc12)c1ccccc1
IC50 (Tumor necrosis factor [1]): 14 nM | IC50 (Tumor necrosis factor [2]): 496 nM | remaining at 10 min [3]: 50% | remaining at 10 min [4]: 45%

C[C@@H](Nc1c(Cl)cnc2ccc(-c3cnc(N4CCN(CC(=O)O)CC4)nc3)cc12)c1ccccc1F
IC50 (Tumor necrosis factor [2]): 115 nM | remaining at 10 min [3]: 57% | remaining at 10 min [4]: 86%

CC(Nc1c(Cl)cnc2ccc(-c3cnc(C(C)(C)O)nc3)cc12)c1cccc(F)c1 (racemic)
IC50 (Tumor necrosis factor [1]): 31 nM | IC50 (Tumor necrosis factor [2]): 1040 nM | remaining at 10 min [3]: 32% | remaining at 10 min [4]: 47%
